According to US20240270821A1, “GIP/GLP1/GCG TRI-RECEPTOR AGONISTS AND USES THEREOF” (priority 2023, published 2024):
Read-outs that look alike come from different tables or passages of the source. Starred links: 1 amine or outer side, 2 acyl side, 3 side chain; linkers in the order of their positions; H or OH if unused. Non-standard residues stand in square brackets, D forms with d. Residues, ends and D or L forms follow the SMILES beside them. Groups on a side chain read outwards from the residue. No end group written: not given here. *: point of attachment. C20 diacid = O=C(O)CCCCCCCCCCCCCCCCCCC(=O)*; C18 diacid = O=C(O)CCCCCCCCCCCCCCCCC(=O)*; αMePhe(2-F) = C[C@](N)(Cc1ccccc1F)C(=O)O; γGlu = O=C(O)[C@H](CCC(=O)[*:2])N[*:1]; αMe4Pal = C[C@](N)(Cc1ccncc1)C(=O)O; αMeY = C[C@](N)(Cc1ccc(O)cc1)C(=O)O; 4Pal = N[C@@H](Cc1ccncc1)C(=O)O; αMeL = CC(C)C[C@](C)(N)C(=O)O; αMeS = C[C@](N)(CO)C(=O)O; Orn = NCCC[C@H](N)C(=O)O; AEEA = NCCOCCOCC(=O)O; Aib = CC(C)(N)C(=O)O

Experiments:
Assay type in all cases: cell-based
[1] = molecular target: T1, hGIPR (Homo sapiens, UniProt P48546); test: Functional cAMP activity in the presence of 1% HSA; details: read-out: cAMP Rel EC50, hGIPR
T1 sequence (P48546 22-466): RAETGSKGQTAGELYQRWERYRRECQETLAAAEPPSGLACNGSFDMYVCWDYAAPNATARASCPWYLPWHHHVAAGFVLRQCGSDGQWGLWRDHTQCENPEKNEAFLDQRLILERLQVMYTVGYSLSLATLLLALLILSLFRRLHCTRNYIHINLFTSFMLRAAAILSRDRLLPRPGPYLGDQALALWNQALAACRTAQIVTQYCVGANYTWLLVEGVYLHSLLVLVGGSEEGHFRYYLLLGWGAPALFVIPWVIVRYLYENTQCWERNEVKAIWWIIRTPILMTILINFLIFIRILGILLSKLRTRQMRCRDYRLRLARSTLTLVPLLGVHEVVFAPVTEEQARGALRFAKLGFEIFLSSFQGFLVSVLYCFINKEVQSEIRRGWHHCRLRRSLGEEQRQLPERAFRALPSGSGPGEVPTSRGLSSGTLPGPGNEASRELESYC

[2] = molecular target: T2, hGLP-1R (Homo sapiens, UniProt P43220); test: Functional cAMP activity in the presence of 1% HSA; details: read-out: cAMP Rel EC50, hGLP-1R
T2 sequence (P43220 24-463): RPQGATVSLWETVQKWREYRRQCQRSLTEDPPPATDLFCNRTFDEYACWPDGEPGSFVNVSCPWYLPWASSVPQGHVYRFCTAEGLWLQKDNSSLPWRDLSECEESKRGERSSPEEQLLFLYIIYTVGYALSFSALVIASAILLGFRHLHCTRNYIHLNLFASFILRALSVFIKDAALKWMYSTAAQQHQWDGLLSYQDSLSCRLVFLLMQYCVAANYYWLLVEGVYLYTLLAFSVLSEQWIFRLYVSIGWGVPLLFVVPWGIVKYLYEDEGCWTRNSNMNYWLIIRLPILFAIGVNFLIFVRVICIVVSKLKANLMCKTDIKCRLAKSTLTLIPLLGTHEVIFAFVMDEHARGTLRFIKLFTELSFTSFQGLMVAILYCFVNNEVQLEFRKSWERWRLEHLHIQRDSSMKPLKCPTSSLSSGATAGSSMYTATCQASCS

[3] = molecular target: human GcgR (Homo sapiens, UniProt P47871); test: Functional cAMP activity in the presence of 1% HSA; details: read-out: cAMP Rel EC50, hGcgR
Chain of human GcgR (P47871 26-477): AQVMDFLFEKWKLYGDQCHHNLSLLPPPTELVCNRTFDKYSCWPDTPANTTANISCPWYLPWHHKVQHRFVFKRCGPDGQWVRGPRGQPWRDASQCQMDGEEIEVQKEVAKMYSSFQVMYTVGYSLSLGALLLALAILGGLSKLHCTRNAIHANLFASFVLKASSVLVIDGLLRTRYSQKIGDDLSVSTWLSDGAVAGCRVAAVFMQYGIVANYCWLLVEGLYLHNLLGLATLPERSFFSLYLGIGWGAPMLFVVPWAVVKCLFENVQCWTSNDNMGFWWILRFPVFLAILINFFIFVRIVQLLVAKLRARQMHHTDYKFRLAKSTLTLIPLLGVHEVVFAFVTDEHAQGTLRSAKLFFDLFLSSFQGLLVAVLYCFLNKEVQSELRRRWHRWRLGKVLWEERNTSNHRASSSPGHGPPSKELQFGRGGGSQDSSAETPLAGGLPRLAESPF

[4] = molecular target: T1, hGIPR; test: Functional cAMP activation in the presence of 0.1% casein (no HSA); details: read-out: Relative cAMP EC50, hGIPR;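 as to Relative cAMP EC50, hGIPR: intracellular cAMP rise after 30 min at 37 °C read by HTRF against a standard curve, scaled between buffer alone (0%) and top control ligand concentration (100%), four-parameter fit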;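 as to Relative cAMP EC50, hGLP-1R: intracellular cAMP rise after 30 min at 37 °C read by HTRF, normalized between buffer only (0%) and maximal control ligand (100%), four-parameter variable-slope fit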;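 as to Relative cAMP EC50, hGcgR: intracellular cAMP rise after 30 min at 37 °C, read by HTRF against a cAMP standard curve, scaled from buffer only (0%) to maximal control ligand response (100%)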
[5] = molecular target: T2, hGLP-1R; test: as above; details: read-out: Relative cAMP EC50, hGLP-1R
[6] = molecular target: hGcgR (Homo sapiens, UniProt P47871); test: as above; details: read-out: Relative cAMP EC50, hGcgR;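 also: intracellular cAMP rise after 30 min at 37 °C, read by HTRF against a cAMP standard curve, scaled from buffer only (0%) to maximal control ligand response (100%)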
Chain of hGcgR (P47871 26-477): as above
Method: After a 30-minute incubation at 37° C., the resulting increase in intracellular cAMP is quantitatively determined using the CisBio CAMP Dynamic 2 HTRF Assay Kit (62AM4PEJ). Briefly, cAMP levels within the cell are detected by adding the cAMP-d2 conjugate in cell lysis buffer followed by the antibody anti-cAMP-Eu^3+-Cryptate, also in cell lysis buffer.
Intracellular cAMP levels are determined by extrapolation using a standard curve. Dose response curves of compounds are plotted as the percentage of stimulation normalized to minimum (buffer only) and maximum (maximum concentration of each control ligand) values and analyzed using a four parameter non-linear regression fit with a variable slope (Genedata Screener 13). EC50 is the concentration of compound causing half-maximal simulation in a dose response curve. Each relative EC50 value for the Geometric mean calculation is determined from a curve fitting.

[7] = in the presence of 0.1% casein (no HSA), geometric mean
[8] = 0.1% casein, no HSA, geometric mean

Compound	EC50 [1]	EC50 [2]	EC50 [3]	EC50 [4]	EC50 [5]	EC50 [6]	EC50 [4, 7]	EC50 [5, 7]	EC50 [6, 7]	EC50 [4, 8]	EC50 [5, 8]	EC50 [6, 8]
CC[C@H](C)[C@H](NC(=O)[C@H](CO)NC(=O)[C@H](Cc1ccc(O)cc1)NC(=O)[C@H](CC(=O)O)NC(=O)[C@H](CO)NC(=O)[C@@H](NC(=O)[C@](C)(Cc1ccccc1F)NC(=O)[C@@H](NC(=O)CNC(=O)[C@H](CCC(N)=O)NC(=O)C(C)(C)NC(=O)[C@@H](N)Cc1ccc(O)cc1)[C@@H](C)O)[C@@H](C)O)C(=O)N[C@@H](CC(C)C)C(=O)N[C@@H](CC(C)C)C(=O)N[C@@H](CC(=O)O)C(=O)N[C@@H](CCCCN)C(=O)N[C@@H](CCCCNC(=O)CC[C@H](NC(=O)CC[C@H](NC(=O)CCCCCCCCCCCCCCCCC(=O)O)C(=O)O)C(=O)O)C(=O)N[C@@H](C)C(=O)N[C@@H](CCC(N)=O)C(=O)NC(C)(C)C(=O)N[C@@H](CC(N)=O)C(=O)N[C@@H](Cc1ccccc1)C(=O)N[C@H](C(=O)N[C@@H](CCC(=O)O)C(=O)N[C@@H](Cc1ccc(O)cc1)C(=O)N[C@@H](CC(C)C)C(=O)N[C@@H](CCC(=O)O)C(=O)N[C@@H](CCC(=O)O)C(=O)NCC(=O)NCC(=O)N1CCC[C@H]1C(=O)N[C@@H](CO)C(=O)N[C@@H](CO)C(=O)NCC(=O)N[C@@H](C)C(=O)N1CCC[C@H]1C(=O)N1CCC[C@H]1C(=O)N1CCC[C@H]1C(=O)N[C@@H](CO)C(N)=O)[C@@H](C)CC [Example 416] (H-Y[Aib]QGT[αMePhe(2-F)]TSDYSILLDKK([γGlu-γGlu-C18 diacid])AQ[Aib]NFIEYLEEGGPSSGAPPPS-NH2)	27.6 nM	40.8 nM	348 nM	0.0393 nM	0.331 nM	2.08 nM						
H-Y[Aib]QGTFTSDFS[Orn][αMeL]LDKK([AEEA-γGlu-C20 diacid])AQ[Aib]AFIEYLLAGGPSSGAPPPSGE-NH2 [Example 82]	87.8 nM	394 nM	1070 nM				0.302 nM	3.52 nM	6.98 nM			
H-Y[Aib]QGTFTSD[4Pal]S[Orn][αMeL]LD[Orn]K([γGlu-γGlu-C18 diacid])AQ[Aib]AFIE[αMeY]LLEGGPSSGAPPPSGSEE-NH2 [Example 1064]	62.5 nM	912 nM	1940 nM				0.556 nM	7.89 nM	13.7 nM			
H-Y[Aib]QGTFTSDFS[Orn][αMeL]LDKK([γGlu-AEEA-γGlu-C18 diacid])AQ[Aib]AFIEYLLE[Aib]GESSGAPPPSGS-NH2 [Example 244]	18.8 nM	645 nM	1230 nM				0.0972 nM	7.68 nM	4.81 nM			
Y[Aib]QGT[αMePhe(2-F)]TSD[4Pal][αMeS]I[αMeL]LD[Orn]K([AEEA-γGlu-C18 diacid])AQ[αMe4Pal]EFI[dQ][αMeY]LIEGGPSSGAPPPSGS-NH2 [Example 1202]	0.471 nM	23.1 nM	70.3 nM							0.00635 nM	0.237 nM	0.5 nM
H-Y[Aib]QGTFTSD[4Pal]SK[αMeL]LDKK([AEEA-γGlu-C18 diacid])AQ[Aib]AFIEYLIA[Aib]GESSGEPPPSGS-NH2 [Example 287]	9.94 nM	562 nM	291 nM				0.0633 nM	4.25 nM	2.53 nM			
H-Y[Aib]QGT[αMePhe(2-F)]TSD[4Pal][αMeS]I[αMeL]LD[Orn]K([AEEA-γGlu-C18 diacid])AQ[αMe4Pal]EFI[dE][αMeY]LIEGGPSSGAPPPSGGGEEE-NH2 [Example 1215]	0.937 nM	58.5 nM	272 nM							0.0106 nM	0.668 nM	2.09 nM
